What was measured:
[1] = molecular target: PI3K (p110α/p85α) (h) (Homo sapiens (Human), UniProt P42336); assay: PI3K (p110α/p85α) (h) non-radioactive HTRF kinase assay; assay type: biochemical; conditions: performed at Millipore UK Ltd
Protocol: (§1) The above assay procedure can be used to determine the IC50 for inhibition and/or the inhibition constant, Ki.
PI3K (p110α/p85α) (h) [Non-Radioactive Assay]
(§2) PI3K (p110α/p85α) (h) is incubated in assay buffer containing 10 μM phosphatidylinositol 4,5-bisphosphate and MgATP (concentration as required). The reaction is initiated by the addition of the ATP solution. After incubation for 30 minutes at room temperature, the reaction is stopped by the addition of stop solution containing EDTA and biotinylated phosphatidylinositol-3,4,5-trisphosphate. Finally, detection buffer is added, which contains europium-labelled anti-GST monoclonal antibody, GST-tagged GRP1 PH domain and streptavidin allophycocyanin. The plate is then read in timeresolved fluorescence mode and the homogenous time-resolved fluorescence (HTRF) signal is determined according to the formula HTRF=10000×(Em665 nm/Em620 nm).
(§3) The kinase assays described herein were performed at Millipore UK Ltd, Dundee Technology Park, Dundee DD2 1SW, UK.

[2] = Compound stability in human liver microsomes; assay type: in vitro ADME; conditions: pH 7.4; for CLint scaled at 5 μM: liver microsomes, in vivo CLint extrapolated from human liver microsome incubation; for half-life at 5 μM: human liver microsomes 0.5 mg protein/mL, compound 5 μM, NADPH 1.0 mM, 37° C., read-out: Human T1/2
Outline: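 Human or rat liver microsomes (0.5 mg protein/mL) incubated with compound (5 μM) and NADPH (1.0 mM) in 100 mM potassium phosphate, pH 7.4, 0.05% DMSO, 37° C, sampled 0–60 min and quenched with cold acetonitrile. Remaining compound quantified by LC/MS/MS as % of time zero; CLint extrapolated.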

[3] = molecular target: PI3K (p120γ) (h) (Homo sapiens (Human), UniProt P48736); assay: PI3K (p120γ) (h) non-radioactive HTRF kinase assay; assay type: biochemical; conditions: performed at Millipore UK Ltd
Chain of PI3K (p120γ) (h) (P48736 whole entry): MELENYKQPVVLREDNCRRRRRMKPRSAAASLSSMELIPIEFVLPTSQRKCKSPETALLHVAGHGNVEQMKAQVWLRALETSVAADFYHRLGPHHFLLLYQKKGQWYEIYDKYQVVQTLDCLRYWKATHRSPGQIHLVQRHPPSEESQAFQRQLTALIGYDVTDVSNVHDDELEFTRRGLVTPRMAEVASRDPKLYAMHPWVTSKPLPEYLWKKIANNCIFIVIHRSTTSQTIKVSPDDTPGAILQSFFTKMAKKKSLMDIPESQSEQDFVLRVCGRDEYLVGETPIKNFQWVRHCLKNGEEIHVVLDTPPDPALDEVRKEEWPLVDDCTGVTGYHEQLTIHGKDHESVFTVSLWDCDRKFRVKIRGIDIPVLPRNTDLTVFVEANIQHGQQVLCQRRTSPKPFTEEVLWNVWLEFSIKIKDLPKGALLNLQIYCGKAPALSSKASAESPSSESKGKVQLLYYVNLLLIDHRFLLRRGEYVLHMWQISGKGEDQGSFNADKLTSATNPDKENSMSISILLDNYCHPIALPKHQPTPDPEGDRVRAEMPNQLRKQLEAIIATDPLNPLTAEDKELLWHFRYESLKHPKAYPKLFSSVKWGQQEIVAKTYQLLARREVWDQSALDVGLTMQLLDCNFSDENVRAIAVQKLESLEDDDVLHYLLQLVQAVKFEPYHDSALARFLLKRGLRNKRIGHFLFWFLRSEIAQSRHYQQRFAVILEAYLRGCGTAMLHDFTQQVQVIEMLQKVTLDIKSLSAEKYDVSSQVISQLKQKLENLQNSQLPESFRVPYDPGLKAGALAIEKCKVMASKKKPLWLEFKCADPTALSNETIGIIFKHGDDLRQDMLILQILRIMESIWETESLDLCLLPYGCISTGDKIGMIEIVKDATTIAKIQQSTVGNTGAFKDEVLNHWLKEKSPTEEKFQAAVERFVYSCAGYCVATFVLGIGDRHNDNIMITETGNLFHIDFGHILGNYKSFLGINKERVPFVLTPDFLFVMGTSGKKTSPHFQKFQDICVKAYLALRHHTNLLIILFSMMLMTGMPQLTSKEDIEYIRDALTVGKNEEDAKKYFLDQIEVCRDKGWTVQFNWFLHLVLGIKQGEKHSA
Protocol: as §1
PI3K (p120γ) (h) [Non-Radioactive Assay]
as §2, with “(p120γ)” for “(p110α/p85α)”, “phosphatidylinositol-4, 5-bisphosphate” for “phosphatidylinositol 4,5-bisphosphate”, “MgATP mix.” for “ATP solution.”, “streptavidin-allophycocyanin.” for “streptavidin allophycocyanin.”
as §3

[4] = molecular target: PI3K (p110δ/p85α) (h) (Homo sapiens (Human), UniProt O00329); assay: PI3K (p110δ/p85α) (h) non-radioactive HTRF kinase assay; assay type: biochemical; conditions: performed at Millipore UK Ltd
Chain of PI3K (p110δ/p85α) (h) (O00329 whole entry, the tested form may be a part): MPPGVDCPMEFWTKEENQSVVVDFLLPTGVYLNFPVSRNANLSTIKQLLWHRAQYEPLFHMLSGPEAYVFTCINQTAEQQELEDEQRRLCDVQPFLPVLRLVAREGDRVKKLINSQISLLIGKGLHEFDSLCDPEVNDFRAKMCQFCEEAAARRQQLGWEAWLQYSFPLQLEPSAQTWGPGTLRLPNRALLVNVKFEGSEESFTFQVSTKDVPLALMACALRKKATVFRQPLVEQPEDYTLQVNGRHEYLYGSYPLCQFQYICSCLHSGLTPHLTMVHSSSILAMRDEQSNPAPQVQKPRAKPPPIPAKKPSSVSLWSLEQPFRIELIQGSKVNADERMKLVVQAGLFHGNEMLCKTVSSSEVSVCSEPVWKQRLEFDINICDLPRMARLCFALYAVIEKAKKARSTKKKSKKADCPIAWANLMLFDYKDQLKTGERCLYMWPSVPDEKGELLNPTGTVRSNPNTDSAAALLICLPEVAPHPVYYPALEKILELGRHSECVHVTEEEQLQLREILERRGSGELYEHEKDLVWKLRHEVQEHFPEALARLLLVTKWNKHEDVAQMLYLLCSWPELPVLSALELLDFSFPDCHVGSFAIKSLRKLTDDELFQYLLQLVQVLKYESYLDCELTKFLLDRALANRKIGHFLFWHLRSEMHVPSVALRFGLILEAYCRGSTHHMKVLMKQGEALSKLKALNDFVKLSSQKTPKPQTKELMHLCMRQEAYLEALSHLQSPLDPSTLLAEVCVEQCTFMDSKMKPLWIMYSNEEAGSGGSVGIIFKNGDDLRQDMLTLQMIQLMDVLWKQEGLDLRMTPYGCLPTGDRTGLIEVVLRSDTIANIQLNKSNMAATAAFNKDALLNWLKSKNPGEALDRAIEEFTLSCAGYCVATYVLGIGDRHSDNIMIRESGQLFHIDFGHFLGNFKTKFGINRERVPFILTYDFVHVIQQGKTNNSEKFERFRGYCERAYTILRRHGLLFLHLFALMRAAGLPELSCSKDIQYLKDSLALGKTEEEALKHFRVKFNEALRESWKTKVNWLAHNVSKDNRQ
Chain of PI3K (p110δ/p85α) (h) (P27986 whole entry partner, the tested form may be a part): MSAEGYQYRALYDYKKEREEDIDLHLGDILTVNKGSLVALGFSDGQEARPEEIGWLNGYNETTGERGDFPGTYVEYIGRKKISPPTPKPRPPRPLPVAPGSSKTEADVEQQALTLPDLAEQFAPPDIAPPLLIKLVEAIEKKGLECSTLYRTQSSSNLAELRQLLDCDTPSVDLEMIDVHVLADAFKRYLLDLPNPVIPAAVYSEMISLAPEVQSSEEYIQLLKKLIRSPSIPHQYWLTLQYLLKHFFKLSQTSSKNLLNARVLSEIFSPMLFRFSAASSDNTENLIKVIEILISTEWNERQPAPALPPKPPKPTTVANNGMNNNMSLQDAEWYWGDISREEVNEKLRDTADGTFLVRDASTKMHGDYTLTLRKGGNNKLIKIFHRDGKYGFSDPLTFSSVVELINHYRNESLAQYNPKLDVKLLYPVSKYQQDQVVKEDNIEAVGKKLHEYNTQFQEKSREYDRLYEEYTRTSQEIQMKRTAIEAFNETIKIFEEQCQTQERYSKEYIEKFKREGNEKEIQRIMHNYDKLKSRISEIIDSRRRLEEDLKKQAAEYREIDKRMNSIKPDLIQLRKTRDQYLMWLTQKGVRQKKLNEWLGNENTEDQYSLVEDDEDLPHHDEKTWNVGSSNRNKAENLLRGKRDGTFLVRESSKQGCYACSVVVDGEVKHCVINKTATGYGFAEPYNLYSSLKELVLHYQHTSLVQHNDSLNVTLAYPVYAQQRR
Outline: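 Human p110δ/p85α incubated with 10 μM phosphatidylinositol-4,5-bisphosphate, reaction started with MgATP (concentration as required), 30 min at room temperature. Stopped with EDTA plus biotinylated PIP3; detection by HTRF with Eu-anti-GST antibody, GST-GRP1 PH domain and streptavidin-APC, signal = 10000×(Em665/Em620). Yields IC50 and/or Ki.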

Chain of PI3K (p110α/p85α) (h) (P42336 whole entry): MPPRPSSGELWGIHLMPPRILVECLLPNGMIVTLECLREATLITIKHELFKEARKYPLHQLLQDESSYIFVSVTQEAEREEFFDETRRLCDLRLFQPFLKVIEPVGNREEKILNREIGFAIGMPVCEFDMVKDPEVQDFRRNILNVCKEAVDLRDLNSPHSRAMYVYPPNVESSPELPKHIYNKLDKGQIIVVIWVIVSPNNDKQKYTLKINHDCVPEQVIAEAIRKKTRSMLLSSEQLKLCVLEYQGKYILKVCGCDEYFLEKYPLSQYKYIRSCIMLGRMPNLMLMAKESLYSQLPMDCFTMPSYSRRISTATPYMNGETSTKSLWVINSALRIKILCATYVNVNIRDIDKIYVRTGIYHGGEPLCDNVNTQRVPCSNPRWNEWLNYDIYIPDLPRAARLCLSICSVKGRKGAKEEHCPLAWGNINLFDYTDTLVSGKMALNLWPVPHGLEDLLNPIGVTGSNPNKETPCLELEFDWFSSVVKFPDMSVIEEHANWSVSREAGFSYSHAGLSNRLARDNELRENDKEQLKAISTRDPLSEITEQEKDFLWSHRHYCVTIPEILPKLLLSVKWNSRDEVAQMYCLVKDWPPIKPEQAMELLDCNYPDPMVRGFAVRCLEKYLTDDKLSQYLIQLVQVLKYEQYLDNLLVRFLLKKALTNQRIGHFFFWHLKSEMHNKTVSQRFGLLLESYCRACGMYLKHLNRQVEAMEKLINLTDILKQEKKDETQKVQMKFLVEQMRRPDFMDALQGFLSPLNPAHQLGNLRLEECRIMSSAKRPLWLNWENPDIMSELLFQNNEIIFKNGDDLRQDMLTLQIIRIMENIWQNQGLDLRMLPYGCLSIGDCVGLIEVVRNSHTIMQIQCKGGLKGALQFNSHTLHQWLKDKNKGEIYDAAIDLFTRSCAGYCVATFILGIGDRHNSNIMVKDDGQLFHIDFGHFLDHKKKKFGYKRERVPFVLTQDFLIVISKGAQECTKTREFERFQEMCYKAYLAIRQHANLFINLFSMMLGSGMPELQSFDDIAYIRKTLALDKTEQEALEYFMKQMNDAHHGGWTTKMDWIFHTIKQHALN
Chain of PI3K (p110α/p85α) (h) (P27986 whole entry partner): as the sequence (P27986 whole entry partner, the tested form may be a part) above

Row | Structure (SMILES) | IC50 [1] [nM] | CLint scaled at 5 μM [2] [mL/min/kg] | half-life at 5 μM [2] [min] | IC50 [3] [nM] | IC50 [4] [nM]
1 | Cc1nnc(-c2c(N)ncnc2N[C@@H](C)c2cc3cccc(Cl)c3c(=O)n2C2CC2)o1 [Ex. 4, (S)-3-(1-((6-amino-5-(5-methyl-1,3,4-oxadiazol-2-yl)pyrimidin-4-yl)amino)ethyl)-8-chloro-2-cyclopropylisoquinolin-1(2H)-one] | 1470 | 85.3 | 20.4 | 387 | 11
2 | Cc1noc(-c2c(N)ncnc2N[C@@H](C)c2cc3cccc(Cl)c3c(=O)n2-c2ccccc2)n1 [Ex. 8, (S)-3-(1-((6-amino-5-(3-methyl-1,2,4-oxadiazol-5-yl)pyrimidin-4-yl)amino)ethyl)-8-chloro-2-phenylisoquinolin-1(2H)-one] | 276 | 196 | 8.88 | 74 | 1
3 | Cc1nnc(-c2c(N)ncnc2N[C@@H](C)c2cc3cccc(Cl)c3c(=O)n2-c2ccccc2)o1 [Ex. 9, (S)-3-(1-((6-amino-5-(5-methyl-1,3,4-oxadiazol-2-yl)pyrimidin-4-yl)amino)ethyl)-8-chloro-2-phenylisoquinolin-1(2H)-one] | 2680 | 83.7 | 20.8 | 255 | 4

Further lines, results first:

Row | IC50 [1] [nM] | CLint scaled at 5 μM [2] [mL/min/kg] | half-life at 5 μM [2] [min] | IC50 [3] [nM] | IC50 [4] [nM] | Structure (SMILES)
4 | 882 | 28.1 | 61.9 | 325 | 13 | Cc1nnc(-c2c(N)ncnc2N[C@@H](C)c2cc3cccc(-c4cnn(C)c4)c3c(=O)n2C2CC2)o1 [Ex. 25, (S)-3-(1-((6-amino-5-(5-methyl-1,3,4-oxadiazol-2-yl)pyrimidin-4-yl)amino)ethyl)-2-cyclopropyl-8-(1-methyl-1H-pyrazol-4-yl)isoquinolin-1 (2H)-one]
5 | 132 | 51.8 | 33.6 | 65 | 4 | Cc1noc(-c2c(N)ncnc2N[C@@H](C)c2cc3cccc(-c4cnn(C)c4)c3c(=O)n2C2CC2)n1 [Ex. 26, (S)-3-(1-((6-amino-5-(3-methyl-1,2,4-oxadiazol-5-yl)pyrimidin-4-yl)amino)ethyl)-2-cyclopropyl-8-(1-methyl-1H-pyrazol-4-yl)isoquinolin-1 (2H)-one]
